The text below walks through data of patent US20260224527A1, “USES OF ANTI-PSYCHOTIC AGENTS” (LB PHARMACEUTICALS INC., priority 2023, published 2026).

One data set deals with D1 receptor subtype (Homo sapiens, UniProt P21728). Particulars: cited from earlier work.
The next data set has as its target T1, D4 receptor subtype (Homo sapiens, UniProt P21917).
T1 sequence (P21917 1-419): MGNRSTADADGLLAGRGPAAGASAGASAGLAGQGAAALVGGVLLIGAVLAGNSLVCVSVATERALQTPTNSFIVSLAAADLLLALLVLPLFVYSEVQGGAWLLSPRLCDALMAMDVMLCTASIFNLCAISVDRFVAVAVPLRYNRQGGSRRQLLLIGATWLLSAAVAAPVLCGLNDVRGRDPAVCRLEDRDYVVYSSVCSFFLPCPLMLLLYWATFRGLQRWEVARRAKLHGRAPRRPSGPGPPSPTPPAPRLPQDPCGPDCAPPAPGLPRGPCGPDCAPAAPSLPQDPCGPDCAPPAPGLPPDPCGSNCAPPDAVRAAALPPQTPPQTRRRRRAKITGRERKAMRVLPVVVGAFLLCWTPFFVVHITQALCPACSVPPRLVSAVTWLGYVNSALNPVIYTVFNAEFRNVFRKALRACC
The settings on record: cited from earlier work.

For another data set, the target named is D5 receptor subtype (Homo sapiens, UniProt P21918). Particulars: cited from earlier work.
D5 receptor subtype, sequence (P21918 whole entry): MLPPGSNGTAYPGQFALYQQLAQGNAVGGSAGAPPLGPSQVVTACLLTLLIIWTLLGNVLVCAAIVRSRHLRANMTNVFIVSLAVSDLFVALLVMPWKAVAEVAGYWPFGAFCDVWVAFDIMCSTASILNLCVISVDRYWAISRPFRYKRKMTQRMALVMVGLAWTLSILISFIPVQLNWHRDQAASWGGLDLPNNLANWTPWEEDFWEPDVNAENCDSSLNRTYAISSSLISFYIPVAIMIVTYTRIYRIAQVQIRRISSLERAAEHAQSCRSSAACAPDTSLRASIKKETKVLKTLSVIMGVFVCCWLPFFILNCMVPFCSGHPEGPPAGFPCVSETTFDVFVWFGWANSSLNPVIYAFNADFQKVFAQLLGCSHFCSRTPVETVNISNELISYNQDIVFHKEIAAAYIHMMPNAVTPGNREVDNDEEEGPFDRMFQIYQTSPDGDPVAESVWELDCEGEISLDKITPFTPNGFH
A further data set has as its target 5-HT2a receptor (Homo sapiens, UniProt P28223). Particulars: compared to other antipsychotics; cited from earlier work.
Data set [1] concerns serotonin receptor subtypes. The settings on record: cited from earlier work.
The subject of data set [2] is alpha-adrenergic receptor subtypes. Particulars: cited from earlier work.
Data set [3] relates to histamine receptor subtypes. The settings on record: cited from earlier work.
A further data set has as its system muscarinic receptors. The settings on record: cited from earlier work.
The test system of a further data set is sigma sites. Particulars: cited from earlier work.
The conditions of data set [4]: 2014 study, rank among 30 psychiatric drugs; cited from earlier work.
Data set [5] concerns PCP-treated rats. The data set is described as follows: Novel Object Recognition (NOR) assay in scPCP model. It is filed as in vivo, rat. The settings on record: for effect on Discrimination Index (DI): 3 hr post-dose. The protocol: (§1) Differences in discrimination index ((time spent exploring novel−time spent exploring familiar)/total exploration time) are depicted. scPCP rats treated with risperidone (Risp) served as a positive control. […] Rats treated with cariprazine (Cari) served as a positive control.
Efficacy of LB-102, LB-103, and LB-104 at different doses was evaluated in rats in a Novel Object Recognition (NOR) assay, a well-established model recapitulating cognitive and negative aspects of the PANSS scale of schizophrenia. In this assay, animals were treated for several weeks with a low dose of phencyclidine (PCP) to impair the ability of the rat to discern between novel and familiar objects. Typically rats, like humans, would spend more time exploring a novel object than a familiar one.
In this NOR study the efficacies of LB-102, LB-103, and LB-104 were compared to known antipsychotic risperidone for its ability to restore normal differentiation between novel and familiar object exploration in PCP-treated rats. Cognitive measurements were taken at 3 hr post-dose for LB-102, LB-103, and LB-104 and 30 min for risperidone. The endpoint of this study was the Discrimination Index (DI), a normalized ratio of time spent exploring a novel object compared to a familiar one.

Data set [6] concerns PCP-treated rats. In words: Social interaction (sniffing index, SI) assay in scPCP model. Type of data set: in vivo, rat. The protocol: as §1
The sniffing component of the SI assay was carried out as described in (J. C. Neil, S. Barnes, S. Cook, B. Grayson, N. F. Iris, S. L. McLean, S. Snigdha, L. Rajagopa, and M. K. Harte, “Animal models of cognitive dysfunction and negative symptoms of schizophrenia: focus on NMDA receptor antagonism”, Pharmacol. Ther., 2010, 128, 419-423) in groups of 12 rats.

The structures appear in SMILES notation.

D1 receptor subtype, sequence (P21728 whole entry): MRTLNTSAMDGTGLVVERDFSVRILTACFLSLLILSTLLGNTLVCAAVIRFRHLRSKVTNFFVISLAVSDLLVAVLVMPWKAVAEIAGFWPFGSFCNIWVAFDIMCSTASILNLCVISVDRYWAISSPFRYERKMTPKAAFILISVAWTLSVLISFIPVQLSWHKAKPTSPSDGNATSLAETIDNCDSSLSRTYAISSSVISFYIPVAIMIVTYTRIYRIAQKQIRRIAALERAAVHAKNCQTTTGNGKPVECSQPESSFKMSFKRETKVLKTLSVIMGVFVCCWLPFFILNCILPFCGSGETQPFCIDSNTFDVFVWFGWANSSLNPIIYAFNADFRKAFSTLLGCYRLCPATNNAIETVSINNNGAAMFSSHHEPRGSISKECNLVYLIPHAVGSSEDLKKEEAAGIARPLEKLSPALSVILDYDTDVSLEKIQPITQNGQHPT
5-HT2a receptor, sequence (P28223 whole entry): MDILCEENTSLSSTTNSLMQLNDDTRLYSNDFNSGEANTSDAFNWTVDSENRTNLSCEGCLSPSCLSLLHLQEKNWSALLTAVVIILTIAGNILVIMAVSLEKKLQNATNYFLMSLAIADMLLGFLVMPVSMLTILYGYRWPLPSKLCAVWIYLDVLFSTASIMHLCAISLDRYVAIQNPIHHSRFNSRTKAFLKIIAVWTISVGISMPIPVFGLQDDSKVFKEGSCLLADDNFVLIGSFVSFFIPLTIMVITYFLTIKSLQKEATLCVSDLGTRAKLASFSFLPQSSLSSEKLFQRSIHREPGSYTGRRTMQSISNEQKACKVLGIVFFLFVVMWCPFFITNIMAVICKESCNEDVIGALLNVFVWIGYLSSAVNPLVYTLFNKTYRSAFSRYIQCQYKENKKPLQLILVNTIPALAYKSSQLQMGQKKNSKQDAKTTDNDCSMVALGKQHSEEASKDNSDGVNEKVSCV

For the molecule `CCN1CCCC1CNC(=O)c1cc(S(=O)(=O)CC)c(N)cc1OC` (stereo not drawn) [Amisulpride, 4-amino-N-(((1-ethyl-2-pyrrolidinyl)methyl)-5-(ethylsulfonyl))-2-methoxybenzamide], the affinity entry on D1 receptor subtype was “without any affinity”; on D4 receptor subtype, “without any affinity”; at D5 receptor subtype it was “without any affinity”; in data set [1], “low affinity”; in data set [2] it was “low affinity”; in [3], “low affinity”. In addition, the affinity entry with muscarinic receptors and in the data set on sigma sites was “low affinity” in each case. At 5-HT2a receptor, the “activity at the 5-HT2a receptor” value is given as “not noted to have any activity”. Besides, in [4], the “passive diffusion across a PAMPA membrane (Pe)” value is recorded as “lowest of 30 psychiatric drugs tested”.

Turning to `CCN1CCCC1CNC(=O)c1cc(S(=O)(=O)CC)c(NC)cc1OC` (racemic) [LB-102], the “NOR result compared to LB-104” value in the data set with PCP-treated rats [5] is “comparable results”. For the same molecule, the “effect on Discrimination Index (DI)” value in the data set with PCP-treated rats [5] (15 mg/kg) and with PCP-treated rats [5] (45 mg/kg) was “significant improvement” throughout. In addition, the “effect on sniffing index (social interaction)” value in the data set on PCP-treated rats [6] (5 mg (printed)) and in the data set with PCP-treated rats [6] (45 mg/kg) was “significant effect” in each case.

Consider `CCN1CCC[C@@H]1CNC(=O)c1cc(S(=O)(=O)CC)c(NC)cc1OC` [LB-104], for which the “effect on Discrimination Index (DI)” value in the data set with PCP-treated rats [5] (15 mg/kg) and in the data set on PCP-treated rats [5] (45 mg/kg) was “significant improvement” throughout. Moreover, in the data set with PCP-treated rats [6] (45 mg/kg), the “effect on sniffing index (social interaction)” value was “significant effect”.
